Key:
[1] = mesylate of the prior art (Schweizer, Dissertation, page 200); cited from earlier work
[2] = Particle size distribution of neramexane mesylate crystals by laser diffraction; format: physicochemical; settings: for d(10) / d(50) / d(90): Example 17, re-crystallized from anisole; for PSD d(10) / PSD d(50) / PSD d(90): re-crystallization step (iii) and seeding step (iv)
Procedure: The particle size is determined according to the known methods employing laser diffraction as already mentioned above, and determining the distribution modal sizes.
Particle size distribution ranges as determined by laser diffraction with mesylates obtained in anisole, cumene, methyl ethyl ketone, methyl isobutyl ketone and n-butyl acetate by performing at least re-crystallization step (iii) and seeding step (iv) are disclosed in the following table:
The crystals obtained in the process of Example 1 are analysed regarding the crystal size and size distribution. A commercial Malvern Mastersizer 2000 is employed. The samples are dispersed in rapeseed oil.

[3] = Amount of solvent necessary to dissolve 1 g neramexane mesylate (re-crystallization step (iii)); format: physicochemical
Procedure: 20 ml cumene are necessary to dissolve 1 g neramexane mesylate at 104° C. The mixture is cooled down to ambient temperature. The re-crystallized product is isolated via centrifugation. The obtained crystals are columnar.
22 ml methyl ethyl ketone are necessary to dissolve 1 g neramexane mesylate at 80° C. The mixture is cooled down to ambient temperature. The re-crystallized product is isolated via centrifugation. The obtained crystals have the form of plates in admixture with columnar crystals.
20 ml methyl isobutyl ketone are necessary to dissolve 1 g neramexane mesylate at 100° C. The mixture is cooled down to ambient temperature. The re-crystallized product is isolated via centrifugation. The obtained crystals are columnar.
23 ml n-butyl acetate are necessary to dissolve 1 g neramexane mesylate at 100° C. The mixture is cooled down to ambient temperature. The re-crystallized product is isolated via centrifugation. The obtained crystals are columnar.
10 ml anisole are necessary to dissolve 1 g neramexane mesylate at 87° C. The mixture is cooled down to ambient temperature. The re-crystallized product is isolated via centrifugation. The obtained crystals are columnar.
20 ml tetrahydrofurane are necessary to dissolve 1 g neramexane mesylate at 60° C. The mixture is cooled down to 57° C., where 5% by weight neramexane mesylate is added. Subsequently, the mixture is cooled down to ambient temperature. The re-crystallized product is isolated via centrifugation in a yield of 89%. The obtained crystals have the form of plates.
20 ml toluene are necessary to dissolve 1 g neramexane mesylate at 80° C. The mixture is cooled down to ambient temperature. The re-crystallized product is isolated via centrifugation.
100 ml of the mixture of acetone and water are necessary to dissolve 1 g neramexane mesylate at 40° C. The mixture is cooled down to ambient temperature. The re-crystallized product is isolated via centrifugation in a yield of 66%.
55 ml of dichloromethane are necessary to dissolve 1 g neramexane mesylate at 40° C. The mixture is cooled down to ambient temperature. The re-crystallized product is isolated via centrifugation in a yield of 87%.

[4] = Example 3, anisole, 5% by weight seeds added
[5] = crystals of Example 1 (anisole, no seeds), Malvern Mastersizer 2000, dispersed in rapeseed oil
[6] = obtained in methyl ethyl ketone
[7] = obtained in methyl isobutyl ketone

## CC1(C)CC(C)(C)CC(C)(N)C1.CS(=O)(=O)O [neramexane mesylate, 1-amino-1,3,3,5,5-pentamethylcyclohexane mesylate]
[1]
  particle population having a diameter of less than 10 μm: approximately 20 % by weight
[2]; [4]
  Particle size Distribution d(10): 15 μm
  Particle size Distribution d(50): 74 μm
  Particle size Distribution d(90): 184 μm
[2]; Example 17, anisole, 1%, 2.5%, 5% and 7.5% seeds, respectively
  amount of particulate matter (particles having a diameter of 10 μm and less): below 5 % by weight
[2]; 1% seeds
  d(10): 69 μm
  d(50): 181 μm
  d(90): 377 μm
[2]; 2.5% seeds
  d(10): 36 μm
  d(50): 119 μm
  d(90): 330 μm
[2]; 5% seeds
  d(10): 24 μm
  d(50): 86 μm
  d(90): 215 μm
[2]; 7.5% seeds
  d(10): 21 μm
  d(50): 76 μm
  d(90): 243 μm
[2]; crystals of Example 1 (anisole, no seeds)
  total amount of particles having a particle size of 10 μm and less: less than 1 % by weight
[2]; [5]
  Particle size Distribution d(10): 52.3 μm
  Particle size Distribution d(50): 129.4 μm
  Particle size Distribution d(90): 264.5 μm
[2]; obtained in anisole
  PSD d(10): 15 μm
  PSD d(50): 74 μm
  PSD d(90): 184 μm
[2]; obtained in cumene
  PSD d(10): 12 μm
  PSD d(50): 62 μm
  PSD d(90): 152 μm
[2]; [6]
  PSD d(10): 5 μm
  PSD d(50): 79 μm
  PSD d(90): 210 μm
[2]; [7]
  PSD d(10): 11 μm
  PSD d(50): 57 μm
  PSD d(90): 137 μm
[2]; obtained in n-butyl acetate
  PSD d(10): 12 μm
  PSD d(50): 58 μm
  PSD d(90): 136 μm
[3]; anisole, 87° C.
  solvent necessary to dissolve 1 g neramexane mesylate: 10 mL
[3]; cumene, 104° C.
  solvent necessary to dissolve 1 g neramexane mesylate: 20 mL
[3]; dichloromethane, 40° C. (comparison)
  solvent necessary to dissolve 1 g neramexane mesylate: 55 mL
[3]; methyl ethyl ketone, 80° C.
  solvent necessary to dissolve 1 g neramexane mesylate: 22 mL
[3]; methyl isobutyl ketone, 100° C.
  solvent necessary to dissolve 1 g neramexane mesylate: 20 mL
[3]; mixture of acetone/water 99/1 (volume/volume), 40° C. (comparison)
  solvent necessary to dissolve 1 g neramexane mesylate: 100 mL
[3]; n-butyl acetate, 100° C.
  solvent necessary to dissolve 1 g neramexane mesylate: 23 mL
[3]; tetrahydrofurane, 60° C.
  solvent necessary to dissolve 1 g neramexane mesylate: 20 mL
[3]; toluene, 80° C. (comparison)
  solvent necessary to dissolve 1 g neramexane mesylate: 20 mL
